Results as given in PubChem BioAssay (NCI).
Values joined by “and” are separate entries in the source; they are usually repeats but may differ in a detail not shown here. Identical values can stand only once.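 Five compound concentrations were applied to cells in 96-well plates for 48 hours; endpoints were derived by simple linear interpolation of the resulting dose-response curve. At the GI50, growth is halved. TGI is the concentration that stops growth completely.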

How the values were obtained:
Experiment in all cases: NCI tumour cell line growth inhibition, 48 h
MOLT-4 leukemia = test system: MOLT-4 leukemia
SK-MEL-2 melanoma = test system: SK-MEL-2 melanoma
UO-31 renal = test system: UO-31 renal
ACHN renal = test system: ACHN renal
LOX IMVI melanoma = test system: LOX IMVI melanoma
T-47D breast = test system: T-47D breast
CAKI-1 renal = test system: CAKI-1 renal
NCI-H226 lung = test system: NCI-H226 lung
OVCAR-3 ovarian = test system: OVCAR-3 ovarian
SF-295 CNS = test system: SF-295 CNS

| SMILES | GI50 (MOLT-4 leukemia) | GI50 (SK-MEL-2 melanoma) | GI50 (UO-31 renal) | GI50 (ACHN renal) | TGI (ACHN renal) | GI50 (LOX IMVI melanoma) | TGI (LOX IMVI melanoma) | GI50 (T-47D breast) | GI50 (CAKI-1 renal) | GI50 (NCI-H226 lung) | TGI (NCI-H226 lung) | GI50 (OVCAR-3 ovarian) | TGI (OVCAR-3 ovarian) | GI50 (SF-295 CNS) | TGI (MOLT-4 leukemia) | TGI (SK-MEL-2 melanoma) | TGI (UO-31 renal) | TGI (T-47D breast) | TGI (CAKI-1 renal) | TGI (SF-295 CNS) |
| --- | --- | --- | --- | --- | --- | --- | --- | --- | --- | --- | --- | --- | --- | --- | --- | --- | --- | --- | --- | --- |
| Nc1nc(=S)c2[nH]cnc2[nH]1 | 0.368 µM and 0.488 µM | 0.741 µM and 1.7 µM and 3.7 µM | 0.43 µM and 0.823 µM and 0.488 µM | 0.89 µM and 4.03 µM | 41.8 µM and 104 µM | 0.136 µM and 0.488 µM | 2.23 µM and 8.64 µM and 19.4 µM | 0.43 µM and 0.964 µM and 1.25 µM | 0.264 µM and 0.345 µM and 0.888 µM | 0.72 µM and 6.95 µM | > 59.5 µM and 106 µM and 102 µM | 0.446 µM and 1.44 µM and 1.1 µM | 6.32 µM and 7.68 µM and 9.64 µM | 0.209 µM and 1.24 µM | – | – | – | – | – | – |
| N#CCCN(CCC#N)c1ccc(C=Nc2ccc(F)cc2)cc1 | – | – | – | – | > 100 µM | – | > 100 µM | – | – | – | > 100 µM | – | > 100 µM | – | > 100 µM | > 32.3 µM | > 100 µM | > 100 µM | > 100 µM | > 100 µM |
| Cn1ccnc1C(=O)/C=C/c1ccc(C(=O)Nc2c(F)c(F)c(F)c(F)c2F)cc1 | 1.91 µM | 2.18 µM | 1.47 µM | 1.65 µM | 3.01 µM | 1.5 µM | 2.87 µM | 1.29 µM | 1.53 µM | 2.7 µM | 8.49 µM | 1.4 µM | 2.74 µM | 1.85 µM | 4.81 µM | 5.6 µM | 2.79 µM | 3.4 µM | 3.11 µM | 3.64 µM |
| COc1ccc(/C=C\c2cc(OC)c(OC)c(OC)c2)c(NS(=O)(=O)c2ccc(C(C)(C)C)cc2)c1O | 0.202 µM | 1.22 µM | 0.982 µM | 0.452 µM | 23.5 µM | 0.667 µM | 17.1 µM | 16.8 µM | 0.0674 µM | 0.546 µM | 13.5 µM | 0.225 µM | 12 µM | 1.37 µM | 3.94 µM | 20.2 µM | 21.6 µM | 52.3 µM | 18.7 µM | 15 µM |
| C=C(Cl)[C@@](Cl)(CBr)CC[C@@H](Br)C(C)(C)Cl | 17.5 µM | 0.552 µM | 0.428 µM | 0.184 µM | 0.562 µM and 0.47 µM | – | 39.4 µM and 34.3 µM | 0.775 µM | 1.22 µM | – | 31 µM and 50.8 µM | – | 2.87 µM and 1.35 µM | – | 58.4 µM and 63.8 µM | 2.72 µM and 1.85 µM | 1.85 µM and 2.01 µM | 2.98 µM and 0.797 µM | 4.9 µM and 1.06 µM | 2.46 µM and 0.452 µM |
| O=c1[nH]c2ccc([N+](=O)[O-])c(Cl)c2c2ccccc12 | – | – | – | – | 18.9 µM | – | > 100 µM | – | – | – | 43.9 µM | – | 17.6 µM | – | 31.8 µM | 24.7 µM | 21.2 µM | 73.7 µM | 13.2 µM | 9.18 µM |
| COc1cc(/C=C\c2cc(OC)c(OC)c(OC)c2)cc(NS(=O)(=O)c2ccc(Cl)cc2)c1OC | 0.672 µM | 0.613 µM | 0.696 µM | 0.586 µM | 29.9 µM | 0.566 µM | > 100 µM | 0.381 µM | 0.374 µM | 13.5 µM | > 100 µM | 0.364 µM | > 100 µM | 0.319 µM | 31.9 µM | 50.7 µM | > 100 µM | > 100 µM | 50 µM | 84 µM |
| COc1cc2cc3c(c(O)c2c(O)c1-c1c(OC)cc2cc4c(c(O)c2c1O)C(=O)O[C@H](C)C4)C(=O)O[C@H](C)C3 | > 100 µM | 50.7 µM | > 100 µM | 24.7 µM | 66.7 µM | 18 µM | 44.6 µM | 23.3 µM | 23.9 µM | 32.7 µM | > 100 µM | 21.2 µM | 48.4 µM | 24.5 µM | > 100 µM | > 100 µM | > 100 µM | 57.2 µM | 61.2 µM | 78.1 µM |
| O=NN(CCCl)C(=O)NC1CCCCC1 | 20.7 µM and 36.1 µM | 22.7 µM and 194 µM | 22 µM and 52.9 µM | 23.2 µM and 82.7 µM | 57.6 µM and 153 µM and 182 µM | 14.2 µM and 27.9 µM | 52 µM and 56.9 µM and 74.8 µM | – | 22.9 µM and 30.5 µM and 60.5 µM | 25.2 µM | 68.2 µM and 150 µM and 180 µM | 13.5 µM | 34.5 µM and 142 µM | 91.7 µM | 38.4 µM and 99.1 µM and 80.3 µM | 49.4 µM and 159 µM and 272 µM | 54.6 µM and 168 µM and 206 µM | 166 µM | 41.7 µM and 101 µM and 142 µM | 118 µM |
| NC(N)=N/N=C(/c1ccccc1)c1ccccc1F | 5.57 µM | 12.2 µM | 4.48 µM | 4.49 µM | 20 µM | 4.69 µM | 19.9 µM | 12.6 µM | 4.26 µM | 5.35 µM | 22 µM | 2.1 µM | 7.55 µM | 2.43 µM | > 100 µM | 36.7 µM | 31.6 µM | 41.3 µM | 31.4 µM | 14.3 µM |
| CCN(CC)CCOc1ccc2c(C)c(C(=O)OC)oc2c1C(=O)/C=C/c1ccc(OC)cc1 | 1.54 µM | 9.99 µM | 1.45 µM | 1.85 µM | 5.25 µM | 1.34 µM | 2.81 µM | 12.9 µM | 3.82 µM | 25.3 µM | 44.9 µM | 4.36 µM | 12.2 µM | 6.76 µM | 6.58 µM | > 23.2 µM | – | 38.5 µM | 10.7 µM | 23.7 µM |
| NC(N)=N/N=C/c1c(-c2ccncc2)nc2sc(Cl)cn12 | 2.83 µM | 11.8 µM | 8.93 µM | 9.28 µM | 24.5 µM | 3.03 µM | 9.55 µM | 28.6 µM | 18.1 µM | 3.98 µM | 15.2 µM | 5.55 µM | 11.6 µM | 13.5 µM | 7.26 µM | > 33.7 µM | > 22.7 µM | 56.6 µM | 34.7 µM | 33.7 µM |
| Cc1ccc(C2=C(Cl)C(=O)C(c3ccc(C)cc3)=C(Cl)C2=O)cc1 | – | – | – | – | > 100 µM | – | > 100 µM | – | – | – | > 100 µM | – | > 100 µM | – | > 100 µM | – | > 100 µM | > 100 µM | > 100 µM | > 100 µM |
| CC1=C(CNO)C2=C(C)C3(CC3)[C@@](C)(O)C(=O)C2=C1 | 3.72 µM | 1.98 µM | 1.83 µM | 2.25 µM | 7.6 µM | 3.44 µM | 19 µM | 1.21 µM | 1.66 µM | 1.83 µM | 4.79 µM | 1.49 µM | 6.26 µM | 0.982 µM | > 100 µM | 4.91 µM | 5.87 µM | 8.47 µM | 7.07 µM | 4.42 µM |
